Data from PubChem BioAssay AID1963961 (Molecular Pharmacology Branch, DTP, NCI, 2024).

Test system: K98450-129-R-PDC multicell spheroids, viability
Assay: Anticancer human tumor K98450-129-R-PDC patient-derived colon adenocarcinoma cell line growth inhibition [PI3K]
Conditions: for viability, T/C: stronger effect = lower value
Procedure, shortened: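 Tumor cells grown as multi-cell spheroids with HUVEC endothelial cells and MSC fibroblast-like stroma were treated with targeted agents combined with inavolisib, alpelisib, duvelisib or copanlisib. Doses fell in half-log steps from near clinical Cmax, else from 10 microM. Viability was measured.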

[1] = curve of first compound, second compound 0.0316 µM
[2] = curve of first compound, second compound 0.1 µM
[3] = curve of first compound, second compound 0.316 µM
[4] = curve of first compound, second compound 1 µM
[5] = second compound 0.0316 µM, first compound 0.00316 µM
[6] = second compound 0.0316 µM, first compound 0.01 µM
[7] = second compound 0.0316 µM, first compound 0.0316 µM
[8] = second compound 0.0316 µM, first compound 0.1 µM
[9] = second compound 0.0316 µM, first compound 0.316 µM
[10] = second compound 0.0316 µM, first compound 1 µM
[11] = second compound 0.1 µM, first compound 0.00316 µM
[12] = second compound 0.1 µM, first compound 0.01 µM
[13] = second compound 0.1 µM, first compound 0.0316 µM
[14] = second compound 0.1 µM, first compound 0.1 µM
[15] = second compound 0.1 µM, first compound 0.316 µM
[16] = second compound 0.1 µM, first compound 1 µM
[17] = second compound 0.316 µM, first compound 0.00316 µM
[18] = second compound 0.316 µM, first compound 0.01 µM
[19] = second compound 0.316 µM, first compound 0.0316 µM
[20] = second compound 0.316 µM, first compound 0.1 µM
[21] = second compound 0.316 µM, first compound 0.316 µM
[22] = second compound 0.316 µM, first compound 1 µM
[23] = second compound 1 µM, first compound 0.00316 µM
[24] = second compound 1 µM, first compound 0.01 µM
[25] = second compound 1 µM, first compound 0.0316 µM
[26] = second compound 1 µM, first compound 0.1 µM
[27] = second compound 1 µM, first compound 0.316 µM
[28] = second compound 1 µM, first compound 1 µM
[29] = curve of first compound, second compound 3.16 µM
[30] = curve of first compound, second compound 10 µM
[31] = second compound 3.16 µM, first compound 0.0316 µM
[32] = second compound 3.16 µM, first compound 0.1 µM
[33] = second compound 10 µM, first compound 0.0316 µM
[34] = second compound 10 µM, first compound 0.1 µM
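Note: spheroids exposed to agents for seven days before read-out.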

SMILES: CCN1CCN(Cc2ccc(Nc3ncc(F)c(-c4cc(F)c5nc(C)n(C(C)C)c5c4)n3)nc2)CC1 + COc1c(OCCCN2CCOCC2)ccc2c3n(c(=NC(=O)c4cnc(N)nc4)nc12)CCN3
- IC50 (curve of first compound, second compound 0.00316 µM): > 1000 nM
- IC50 (curve of first compound, second compound 0.01 µM): > 1000 nM
- IC50 [1]: > 1000 nM
- IC50 [2]: > 1000 nM
- IC50 [3]: > 1000 nM
- IC50 [4]: < 3.16 nM
- viability, T/C (second compound 0.00316 µM, first compound 0.00316 µM): 99.6%
- viability, T/C (second compound 0.00316 µM, first compound 0.01 µM): 108%
- viability, T/C (second compound 0.00316 µM, first compound 0.0316 µM): 88.9%
- viability, T/C (second compound 0.00316 µM, first compound 0.1 µM): 86.9%
- viability, T/C (second compound 0.00316 µM, first compound 0.316 µM): 87.5%
- viability, T/C (second compound 0.00316 µM, first compound 1 µM): 79.4%
- viability, T/C (second compound 0.01 µM, first compound 0.00316 µM): 117%
- viability, T/C (second compound 0.01 µM, first compound 0.01 µM): 93.7%
- viability, T/C (second compound 0.01 µM, first compound 0.0316 µM): 81.6%
- viability, T/C (second compound 0.01 µM, first compound 0.1 µM): 94%
- viability, T/C (second compound 0.01 µM, first compound 0.316 µM): 71.1%
- viability, T/C (second compound 0.01 µM, first compound 1 µM): 75.8%
- viability, T/C [5]: 78.3%
- viability, T/C [6]: 64.5%
- viability, T/C [7]: 81.9%
- viability, T/C [8]: 66.8%
- viability, T/C [9]: 72.8%
- viability, T/C [10]: 110%
- viability, T/C [11]: 71.6%
- viability, T/C [12]: 64.9%
- viability, T/C [13]: 85.6%
- viability, T/C [14]: 57.3%
- viability, T/C [15]: 64.2%
- viability, T/C [16]: 70.7%
- viability, T/C [17]: 53.1%
- viability, T/C [18]: 64.6%
- viability, T/C [19]: 57.3%
- viability, T/C [20]: 46.2%
- viability, T/C [21]: 64.7%
- viability, T/C [22]: 60%
- viability, T/C [23]: 56%
- viability, T/C [24]: 45%
- viability, T/C [25]: 45.8%
- viability, T/C [26]: 47.8%
- viability, T/C [27]: 59.8%
- viability, T/C [28]: 65.2%

SMILES: CC(=O)c1c(C)c2cnc(Nc3ccc(N4CCNCC4)cn3)nc2n(C2CCCC2)c1=O + CC(Nc1ncnc2nc[nH]c12)c1cc2cccc(Cl)c2c(=O)n1-c1ccccc1
- IC50 [1]: > 100 nM
- IC50 [2]: > 100 nM
- IC50 [3]: > 100 nM
- IC50 [4]: > 100 nM
- IC50 [29]: > 100 nM
- IC50 [30]: > 100 nM
- viability, T/C (second compound 0.0316 µM, first compound 0.000316 µM): 105%
- viability, T/C (second compound 0.0316 µM, first compound 0.001 µM): 100%
- viability, T/C [5]: 110%
- viability, T/C [6]: 99%
- viability, T/C [7]: 100%
- viability, T/C [8]: 86.2%
- viability, T/C (second compound 0.1 µM, first compound 0.000316 µM): 109%
- viability, T/C (second compound 0.1 µM, first compound 0.001 µM): 94.8%
- viability, T/C [11]: 94.2%
- viability, T/C [12]: 96.1%
- viability, T/C [13]: 93.1%
- viability, T/C [14]: 99.3%
- viability, T/C (second compound 0.316 µM, first compound 0.000316 µM): 107%
- viability, T/C (second compound 0.316 µM, first compound 0.001 µM): 106%
- viability, T/C [17]: 93.7%
- viability, T/C [18]: 94.8%
- viability, T/C [19]: 101%
- viability, T/C [20]: 81.6%
- viability, T/C (second compound 1 µM, first compound 0.000316 µM): 102%
- viability, T/C (second compound 1 µM, first compound 0.001 µM): 92.3%
- viability, T/C [23]: 90.2%
- viability, T/C [24]: 101%
- viability, T/C [25]: 101%
- viability, T/C [26]: 85.8%
- viability, T/C (second compound 3.16 µM, first compound 0.000316 µM): 105%
- viability, T/C (second compound 3.16 µM, first compound 0.001 µM): 97.2%
- viability, T/C (second compound 3.16 µM, first compound 0.00316 µM): 87.6%
- viability, T/C (second compound 3.16 µM, first compound 0.01 µM): 94.5%
- viability, T/C [31]: 96.9%
- viability, T/C [32]: 89.9%
- viability, T/C (second compound 10 µM, first compound 0.000316 µM): 92.4%
- viability, T/C (second compound 10 µM, first compound 0.001 µM): 96.7%
- viability, T/C (second compound 10 µM, first compound 0.00316 µM): 74.5%
- viability, T/C (second compound 10 µM, first compound 0.01 µM): 82.2%
- viability, T/C [33]: 103%
- viability, T/C [34]: 72.2%

SMILES: C[C@@H](NC(=O)c1ncnc(N)c1Cl)c1ncc(C(=O)Nc2cc(C(F)(F)F)c(Cl)cn2)s1 + Cc1nc(NC(=O)N2CCCC2C(N)=O)sc1-c1ccnc(C(C)(C)C(F)(F)F)c1
- IC50 [1]: > 10000 nM
- IC50 [2]: > 10000 nM
- IC50 [3]: > 10000 nM
- IC50 [4]: > 10000 nM
- IC50 [29]: > 10000 nM
- IC50 [30]: > 10000 nM
- viability, T/C [7]: 104%
- viability, T/C [8]: 106%
- viability, T/C [9]: 119%
- viability, T/C [10]: 117%
- viability, T/C (second compound 0.0316 µM, first compound 3.16 µM): 112%
- viability, T/C (second compound 0.0316 µM, first compound 10 µM): 103%
- viability, T/C [13]: 117%
- viability, T/C [14]: 98.2%
- viability, T/C [15]: 119%
- viability, T/C [16]: 104%
- viability, T/C (second compound 0.1 µM, first compound 3.16 µM): 112%
- viability, T/C (second compound 0.1 µM, first compound 10 µM): 104%
- viability, T/C [19]: 107%
- viability, T/C [20]: 104%
- viability, T/C [21]: 106%
- viability, T/C [22]: 108%
- viability, T/C (second compound 0.316 µM, first compound 3.16 µM): 110%
- viability, T/C (second compound 0.316 µM, first compound 10 µM): 103%
- viability, T/C [25]: 92.6%
- viability, T/C [26]: 99%
- viability, T/C [27]: 105%
- viability, T/C [28]: 102%
- viability, T/C (second compound 1 µM, first compound 3.16 µM): 111%
- viability, T/C (second compound 1 µM, first compound 10 µM): 90%
- viability, T/C [31]: 84.8%
- viability, T/C [32]: 90.3%
- viability, T/C (second compound 3.16 µM, first compound 0.316 µM): 96.5%
- viability, T/C (second compound 3.16 µM, first compound 1 µM): 91.7%
- viability, T/C (second compound 3.16 µM, first compound 3.16 µM): 95.8%
- viability, T/C (second compound 3.16 µM, first compound 10 µM): 75.1%
- viability, T/C [33]: 76.5%
- viability, T/C [34]: 74.3%
- viability, T/C (second compound 10 µM, first compound 0.316 µM): 83.7%
- viability, T/C (second compound 10 µM, first compound 1 µM): 76.8%
- viability, T/C (second compound 10 µM, first compound 3.16 µM): 72.5%
- viability, T/C (second compound 10 µM, first compound 10 µM): 58.5%

SMILES: C[C@@H](NC(=O)c1ncnc(N)c1Cl)c1ncc(C(=O)Nc2cc(C(F)(F)F)c(Cl)cn2)s1
- viability, T/C (compound 0.0316 µM): 108% [middle of 4 runs]
- viability, T/C (compound 0.1 µM): 110% [middle of 4 runs]
- viability, T/C (compound 0.316 µM): 119% [middle of 4 runs]
- viability, T/C (compound 1 µM): 122% [middle of 4 runs]
- viability, T/C (compound 3.16 µM): 120% [middle of 4 runs]
- viability, T/C (compound 10 µM): 109% [middle of 4 runs]
- IC50 (curve of compound): > 10000 nM
